In PubChem BioAssay (NCI):
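1) Cells in 96-well plates. 2) Compound, 48 h, 5 concentrations. 3) Linear interpolation between surrounding doses. 4) Unreached endpoint = highest concentration. TGI denotes the concentration required for complete inhibition of growth.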

Tests used:
Experiment in all cases: NCI anticancer screen, dose series, 48 h
786-0 renal = system: 786-0 renal
A498 renal = system: A498 renal
A549 NSCLC = system: A549 NSCLC
ACHN renal = system: ACHN renal
CAKI-1 renal = system: CAKI-1 renal
CCRF-CEM leukemia = system: CCRF-CEM leukemia
COLO 205 colon = system: COLO 205 colon
DLD-1 colon = system: DLD-1 colon
DMS 114 small cell lung = system: DMS 114 small cell lung
DMS 273 small cell lung = system: DMS 273 small cell lung
EKVX NSCLC = system: EKVX NSCLC
HCC-2998 colon = system: HCC-2998 colon
HCT-116 colon = system: HCT-116 colon
HCT-15 colon = system: HCT-15 colon
HL-60(TB) leukemia = system: HL-60(TB) leukemia
HOP-18 NSCLC = system: HOP-18 NSCLC
HOP-92 NSCLC = system: HOP-92 NSCLC
HT29 colon = system: HT29 colon
IGROV1 ovarian = system: IGROV1 ovarian
K-562 leukemia = system: K-562 leukemia
KM12 colon = system: KM12 colon
KM20L2 colon = system: KM20L2 colon
LXFL 529 NSCLC = system: LXFL 529 NSCLC
M14 melanoma = system: M14 melanoma
M19-MEL melanoma = system: M19-MEL melanoma
MALME-3M melanoma = system: MALME-3M melanoma
MOLT-4 leukemia = system: MOLT-4 leukemia
NCI-H226 lung = system: NCI-H226 lung
NCI-H23 lung = system: NCI-H23 lung
NCI-H460 lung = system: NCI-H460 lung
NCI-H522 lung = system: NCI-H522 lung
OVCAR-3 ovarian = system: OVCAR-3 ovarian
OVCAR-4 ovarian = system: OVCAR-4 ovarian
OVCAR-8 ovarian = system: OVCAR-8 ovarian
RPMI-8226 leukemia = system: RPMI-8226 leukemia
RXF 393 renal = system: RXF 393 renal
SF-268 CNS = system: SF-268 CNS
SF-295 CNS = system: SF-295 CNS
SF-539 CNS = system: SF-539 CNS
SK-MEL-2 melanoma = system: SK-MEL-2 melanoma
SK-MEL-28 melanoma = system: SK-MEL-28 melanoma
SK-MEL-5 melanoma = system: SK-MEL-5 melanoma
SK-OV-3 ovarian = system: SK-OV-3 ovarian
SN12C renal = system: SN12C renal
SNB-19 CNS = system: SNB-19 CNS
SNB-75 CNS = system: SNB-75 CNS
SR leukemia = system: SR leukemia
SW-620 colon = system: SW-620 colon
TK-10 renal = system: TK-10 renal
U251 CNS = system: U251 CNS
UACC-257 melanoma = system: UACC-257 melanoma
UO-31 renal = system: UO-31 renal
XF 498 CNS = system: XF 498 CNS

In the case of `COc1ccc2[nH]c3c(C)cc([N+](=O)[O-])c(C)c3c2c1`, the TGI (786-0 renal) is reported as > 100 µM, the TGI (A498 renal) is reported as 59.6 µM and the TGI (A549 NSCLC) is reported as 75.3 µM. The TGI (ACHN renal) was 63.1 µM, the TGI (CAKI-1 renal) was > 100 µM and the TGI (CCRF-CEM leukemia) was 56.4 µM. For the same compound, the TGI (COLO 205 colon) was > 100 µM, the TGI (DLD-1 colon) was 72.7 µM and the TGI (DMS 114 small cell lung) was 58.3 µM. For the same compound, the TGI (DMS 273 small cell lung) was 45.4 µM, the TGI (EKVX NSCLC) was > 100 µM and the TGI (HCC-2998 colon) was 67.7 µM. The TGI (HCT-116 colon) was 58.7 µM, the TGI (HCT-15 colon) was > 100 µM and the TGI (HL-60(TB) leukemia) was 50.4 µM. The TGI (HOP-18 NSCLC) was > 100 µM, the TGI (HOP-92 NSCLC) was 80.6 µM and the TGI (HT29 colon) was 83.8 µM. For the same compound, the TGI (IGROV1 ovarian) was > 100 µM, the TGI (K-562 leukemia) was 44.3 µM and the TGI (KM12 colon) was 45.4 µM. For the same compound, the TGI (KM20L2 colon) was > 100 µM, the TGI (LXFL 529 NSCLC) was > 100 µM and the TGI (M14 melanoma) was 53.2 µM. The TGI (M19-MEL melanoma) was 45.1 µM, the TGI (MALME-3M melanoma) was 73.4 µM and the TGI (MOLT-4 leukemia) was > 100 µM. For the same compound, the TGI (NCI-H226 lung) was > 100 µM, the TGI (NCI-H23 lung) was > 100 µM and the TGI (NCI-H460 lung) was 39.7 µM. For the same compound, the TGI (NCI-H522 lung) was 43 µM, the TGI (OVCAR-3 ovarian) was > 100 µM and the TGI (OVCAR-4 ovarian) was > 100 µM. For the same compound, the TGI (OVCAR-8 ovarian) was 79.9 µM, the TGI (RPMI-8226 leukemia) was 62.7 µM and the TGI (RXF 393 renal) was 41.9 µM. For the same compound, the TGI (SF-268 CNS) was > 100 µM, the TGI (SF-295 CNS) was > 100 µM and the TGI (SF-539 CNS) was > 100 µM. For the same compound, the TGI (SK-MEL-2 melanoma) was 46 µM, the TGI (SK-MEL-28 melanoma) was 92.2 µM and the TGI (SK-MEL-5 melanoma) was 88.4 µM. For the same compound, the TGI (SK-OV-3 ovarian) was 78.3 µM, the TGI (SN12C renal) was > 100 µM and the TGI (SNB-19 CNS) was > 100 µM. The TGI (SNB-75 CNS) was 86.1 µM, the TGI (SR leukemia) was 58.5 µM and the TGI (SW-620 colon) was > 100 µM. The TGI (TK-10 renal) was 76.5 µM, the TGI (U251 CNS) was 97.8 µM and the TGI (UACC-257 melanoma) was > 100 µM. For the same compound, the TGI (UO-31 renal) was 71 µM and the TGI (XF 498 CNS) was > 100 µM.
